Data: US8962631B2 (Vertex Pharmaceuticals Incorporated, priority 2010, dated 2015)

target: T1, full-length ATR (Homo sapiens, UniProt Q13535); test: ATR Inhibition Assay (radioactive-phosphate incorporation); format: biochemical; settings: Ki(app); 10 μM ATP, 800 μM target peptide, 5 nM full-length ATR, 25° C.
T1 construct: Assays were carried out at 25° C. in the presence of 5 nM full-length ATR
Experimental: Compounds were screened for their ability to inhibit ATR kinase using a radioactive-phosphate incorporation assay. Assays were carried out in a mixture of 50 mM Tris/HCl (pH 7.5), 10 mM MgCl2 and 1 mM DTT. Final substrate concentrations were 10 μM [γ-33P]ATP (3 mCi 33P ATP/mmol ATP, Perkin Elmer) and 800 μM target peptide ([…] (SEQ. ID NO: 1)).
Assays were carried out at 25° C. in the presence of 5 nM full-length ATR. An assay stock buffer solution was prepared containing all of the reagents listed above, with the exception of ATP and the test compound of interest. 13.5 μL of the stock solution was placed in a 96 well plate followed by addition of 2 μL of DMSO stock containing serial dilutions of the test compound (typically starting from a final concentration of 15 μM with 3-fold serial dilutions) in duplicate (final DMSO concentration 7%). The plate was pre-incubated for 10 minutes at 25° C. and the reaction initiated by addition of 15 μL [γ-33P]ATP (final concentration 10 μM).
The reaction was stopped after 24 hours by the addition of 30 μL 0.1M phosphoric acid containing 2 mM ATP. A multiscreen phosphocellulose filter 96-well plate (Millipore, Cat no. MAPHN0B50) was pretreated with 100 μL 0.2M phosphoric acid prior to the addition of 45 μL of the stopped assay mixture. The plate was washed with […] 0.2M phosphoric acid. After drying, 100 μL Optiphase ‘SuperMix’ liquid scintillation cocktail (Perkin Elmer) was added to the well prior to scintillation counting (1450 Microbeta Liquid Scintillation Counter, Wallac).
After removing mean background values for all of the data points, Ki(app) data were calculated from non-linear regression analysis of the initial rate data using the Prism software package (GraphPad Prism version 3.0cx for Macintosh, GraphPad Software, San Diego Calif., USA).

T1 sequence (Q13535 whole entry): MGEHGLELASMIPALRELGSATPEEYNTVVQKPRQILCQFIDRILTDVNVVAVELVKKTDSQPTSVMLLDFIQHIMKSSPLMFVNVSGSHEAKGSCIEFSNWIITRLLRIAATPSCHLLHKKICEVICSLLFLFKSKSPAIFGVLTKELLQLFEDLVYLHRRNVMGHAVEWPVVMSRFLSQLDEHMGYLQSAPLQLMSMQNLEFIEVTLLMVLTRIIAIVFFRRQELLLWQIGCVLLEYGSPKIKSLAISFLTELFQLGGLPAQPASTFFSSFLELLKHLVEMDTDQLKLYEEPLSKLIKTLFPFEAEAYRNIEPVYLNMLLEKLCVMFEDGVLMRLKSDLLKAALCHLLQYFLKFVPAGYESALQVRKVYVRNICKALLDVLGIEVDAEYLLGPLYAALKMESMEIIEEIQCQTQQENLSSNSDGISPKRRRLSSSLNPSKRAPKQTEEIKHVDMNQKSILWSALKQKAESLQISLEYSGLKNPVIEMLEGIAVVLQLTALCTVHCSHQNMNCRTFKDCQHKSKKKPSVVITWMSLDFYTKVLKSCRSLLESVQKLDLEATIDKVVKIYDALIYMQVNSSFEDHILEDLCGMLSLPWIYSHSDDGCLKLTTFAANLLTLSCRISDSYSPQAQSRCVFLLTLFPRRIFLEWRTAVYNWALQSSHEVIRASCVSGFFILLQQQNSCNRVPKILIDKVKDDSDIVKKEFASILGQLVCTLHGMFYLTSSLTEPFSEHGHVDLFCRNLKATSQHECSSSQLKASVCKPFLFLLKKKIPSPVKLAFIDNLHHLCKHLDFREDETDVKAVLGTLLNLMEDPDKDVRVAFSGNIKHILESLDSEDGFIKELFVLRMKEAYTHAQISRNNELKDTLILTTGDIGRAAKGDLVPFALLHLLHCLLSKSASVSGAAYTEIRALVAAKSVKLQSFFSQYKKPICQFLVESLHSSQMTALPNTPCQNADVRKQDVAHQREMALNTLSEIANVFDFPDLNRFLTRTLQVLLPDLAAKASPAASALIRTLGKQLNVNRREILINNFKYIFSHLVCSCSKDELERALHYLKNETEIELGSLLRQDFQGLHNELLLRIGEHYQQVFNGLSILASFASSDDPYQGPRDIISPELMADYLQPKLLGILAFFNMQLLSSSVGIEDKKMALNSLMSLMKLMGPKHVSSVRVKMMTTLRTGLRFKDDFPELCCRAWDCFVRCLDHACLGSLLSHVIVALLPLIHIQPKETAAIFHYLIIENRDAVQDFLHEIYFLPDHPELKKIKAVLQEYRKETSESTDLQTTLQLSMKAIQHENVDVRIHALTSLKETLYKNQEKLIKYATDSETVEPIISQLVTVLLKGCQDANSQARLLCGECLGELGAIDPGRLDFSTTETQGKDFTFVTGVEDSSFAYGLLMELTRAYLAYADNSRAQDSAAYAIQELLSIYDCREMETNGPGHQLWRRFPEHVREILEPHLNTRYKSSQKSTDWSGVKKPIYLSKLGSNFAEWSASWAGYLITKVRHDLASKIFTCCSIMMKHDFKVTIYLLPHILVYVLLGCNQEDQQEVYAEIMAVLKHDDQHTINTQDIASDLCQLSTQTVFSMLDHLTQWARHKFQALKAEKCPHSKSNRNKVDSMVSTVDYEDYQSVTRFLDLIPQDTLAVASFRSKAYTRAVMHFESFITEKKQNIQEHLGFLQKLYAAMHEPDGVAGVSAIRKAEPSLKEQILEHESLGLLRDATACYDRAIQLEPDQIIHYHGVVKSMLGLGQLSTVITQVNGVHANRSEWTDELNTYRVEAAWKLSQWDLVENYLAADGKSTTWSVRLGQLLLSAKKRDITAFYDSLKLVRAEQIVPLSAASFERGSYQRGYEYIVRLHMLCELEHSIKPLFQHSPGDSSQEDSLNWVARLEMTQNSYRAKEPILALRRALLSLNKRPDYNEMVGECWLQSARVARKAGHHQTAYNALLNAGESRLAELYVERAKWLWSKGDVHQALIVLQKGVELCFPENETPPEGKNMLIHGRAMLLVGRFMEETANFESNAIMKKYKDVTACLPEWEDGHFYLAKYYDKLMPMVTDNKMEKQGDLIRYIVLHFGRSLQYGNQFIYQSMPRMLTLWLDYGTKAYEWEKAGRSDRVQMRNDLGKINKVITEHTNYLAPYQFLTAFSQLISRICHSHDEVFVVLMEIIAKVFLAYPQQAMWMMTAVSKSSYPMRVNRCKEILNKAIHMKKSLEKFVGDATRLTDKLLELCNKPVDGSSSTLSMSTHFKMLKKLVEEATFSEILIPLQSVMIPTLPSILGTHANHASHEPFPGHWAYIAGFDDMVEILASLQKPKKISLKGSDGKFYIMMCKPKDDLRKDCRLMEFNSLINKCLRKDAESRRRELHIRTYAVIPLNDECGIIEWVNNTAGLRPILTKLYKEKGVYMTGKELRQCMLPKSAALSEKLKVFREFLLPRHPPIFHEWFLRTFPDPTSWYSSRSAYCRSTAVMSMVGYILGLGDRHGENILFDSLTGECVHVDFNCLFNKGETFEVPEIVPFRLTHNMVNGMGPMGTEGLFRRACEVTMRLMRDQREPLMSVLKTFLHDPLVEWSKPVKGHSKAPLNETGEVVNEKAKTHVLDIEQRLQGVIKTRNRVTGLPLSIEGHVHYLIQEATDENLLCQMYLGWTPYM

| Compound | Ki [nM] |
| --- | --- |
| Cc1ccc2nc(-c3nc(Oc4ccc(O)cc4)cnc3N)[nH]c2c1 [II-24, 4-[5-Amino-6-(6-methyl-1H-benzimidazol-2-yl)pyrazin-2-yl]oxyphenol] | 1000 to 8000 |
| Cc1ccc2nc(-c3nc(C#CCN4CCS(=O)(=O)CC4)cnc3N)[nH]c2c1 [II-85, 5-[3-(1,1-Dioxo-1,4-thiazinan-4-yl)prop-1-ynyl]-3-(6-methyl-1H-benzimidazol-2-yl)pyrazin-2-amine] | ≤ 500 |
| Cc1ccc2nc(-c3nc(C(=O)Nc4cccnc4)cnc3N)[nH]c2c1 [II-42, 5-Amino-6-(6-methyl-1H-benzimidazol-2-yl)-N-(3-pyridyl)pyrazine-2-carboxamide] | 500 to 1000 |
| Nc1ncc(Sc2ccccc2)nc1C(=O)Nc1ccccc1 [II-37, 3-Amino-N-phenyl-6-phenylsulfanyl-pyrazine-2-carboxamide] | 1000 to 8000 |
| Cc1ccc2nc(-c3nc(C(=O)NCc4ccccc4)cnc3N)[nH]c2c1 [II-43, 5-Amino-N-benzyl-6-(6-methyl-1H-benzimidazol-2-yl)pyrazine-2-carboxamide] | ≤ 500 |
| Cc1ccc2nc(-c3nc(C(=O)NCC(=O)N(C)C)cnc3N)[nH]c2c1 [II-61, 5-Amino-N-[2-(dimethylamino)-2-oxo-ethyl]-6-(6-methyl-1H-benzimidazol-2-yl)pyrazine-2-carboxamide] | 1000 to 8000 |
| CC(=O)Nc1ccc(Oc2cnc(N)c(-c3nc4ccc(C)cc4[nH]3)n2)cc1 [II-18, N-[4-[5-Amino-6-(6-methyl-1H-benzimidazol-2-yl)pyrazin-2-yl]oxyphenyl]acetamide] | 1000 to 8000 |
| Cc1ccc2nc(-c3nc(Oc4ccc(C(=O)O)cc4)cnc3N)[nH]c2c1 [II-26, 4-[5-Amino-6-(6-methyl-1H-benzimidazol-2-yl)pyrazin-2-yl]oxybenzoic acid] | ≤ 500 |

same assay, conditions: at 15 uM compound; read-out: percent inhibition against ATR

| Compound | inhibition at 15 µM [%] |
| --- | --- |
| COc1ccc(Oc2cnc(N)c(-c3nc4ccc(C)cc4[nH]3)n2)cc1 [II-19, 5-(4-Methoxyphenoxy)-3-(6-methyl-1H-benzimidazol-2-yl)pyrazin-2-amine] | 25 to 45 |
